Source: PMC4887496, “The Mouthparts Enriched Odorant Binding Protein 11 of the Alfalfa Plant Bug Adelphocoris lineolatus Displays a Preferential Binding Behavior to Host Plant Secondary Metabolites” (Frontiers in Physiology, 2016)
Read-outs that look alike come from different tables or passages of the source.

How the values were obtained:
[1] = target: T1, recombinant AlinOBP11 (Adelphocoris lineolatus, UniProt F4Y5P9); test: biochemical; format: binding
[2] = target: T1, recombinant AlinOBP11; test: Binding of fluorescent probe 1-NPN to recombinant AlinOBP11 (fluorescence titration, Scatchard plot); conditions: 2 μM protein in 50 mM Tris-HCl pH 7.4, 1-NPN 1 to 16 μM; read-out: dissociation constant of the AlinOBP11/1-NPN complex
[3] = tested on: AlucOBP36; design: method as in Hua et al., 2012; conditions: antennae expressed AlucOBP36; ref Hua et al., 2012; cited from earlier work
[4] = 2 μM protein, 2 μM 1-NPN, 50 mM Tris-HCl pH 7.4, competitor 2 to 30 μM, 25°C, read-out: IC50 (μM) AlinOBP11
[5] = calculated from IC50: Ki = [IC50]/(1+[1-NPN]/K1-NPN), 2 μM protein, 2 μM 1-NPN, pH 7.4, read-out: Ki (μM) AlinOBP11

T1 sequence (F4Y5P9 entry or part of it): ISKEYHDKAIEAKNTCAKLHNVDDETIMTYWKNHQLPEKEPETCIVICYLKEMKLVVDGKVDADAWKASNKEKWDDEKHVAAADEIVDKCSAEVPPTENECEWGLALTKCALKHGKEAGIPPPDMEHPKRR

| Molecule | IC50 [1] | IC50 [1, 4] | also measured |
| --- | --- | --- | --- |
| c1ccc2[nH]ccc2c1 [Indole] | > 30 µM | – | – |
| CC/C=C\CCOC(C)=O [cis-3-hexenyl acetate] | – | > 30 µM | – |
| c1ccc(Nc2cccc3ccccc23)cc1 [1-NPN, N-phenyl-1-naphthylamine] | – | – | Kd [2]: 5.86 ± 0.47 µM |
| Cc1ccc(C=O)cc1C [3,4-Dimethyl-benzaldehyde] | – | > 30 µM | – |
| CC1=CC[C@H](C(C)C)C=C1 [α-Phellandrene] | 26.2 ± 0.52 µM | – | Ki [1]: 20.1 ± 0.41 µM |
| CCCCOC(=O)CCC [Butyl butyrate] | – | > 30 µM | – |
| CCCCCCOC(=O)CCC [Hexyl butyrate] | – | > 30 µM | – |
| Cc1cc2c(C(C)C)c(O)c(O)c(C=O)c2c(O)c1-c1c(C)cc2c(C(C)C)c(O)c(O)c(C=O)c2c1O [Gossypol] | 4.45 ± 0.34 µM | – | Ki [1]: 3.43 ± 0.32 µM |
| CC(C)=CCC/C(C)=C/CC/C(C)=C/CO [trans,trans-Farnesol] | – | 25.2 ± 2.36 µM | Ki [1, 5]: 19.3 ± 1.78 µM |
| CCCCCC=O [Hexanal] | > 30 µM | – | – |
| CCCC(=O)OCC [Ethyl butyrate] | > 30 µM | – | – |
| CCCCCCCCCCC [Undecane] | – | > 30 µM | – |
| CCCCC=O [Valeraldehyde] | – | > 30 µM | – |
| CC(=O)c1ccccc1 [Acetophenone] | > 30 µM | – | – |
| CCCCCCC=O [Heptanal] | > 30 µM | – | – |
| CCCCCCO [1-Hexanol] | > 30 µM | – | – |
| COC(=O)c1ccccc1O [Methyl salicylate] | > 30 µM | – | – |
| C=CC(=C)CCC=C(C)C [Myrcene] | – | > 30 µM | – |
| C=C1CC/C=C(\C)CC[C@@H]2[C@@H]1CC2(C)C [β-Caryophyllene] | > 30 µM | – | – |
| C=C/C(C)=C/CC=C(C)C [E-β-Ocimene] | – | > 30 µM | – |
| (+)-α-Pinene | – | > 30 µM | – |
| C/C1=C\CC/C(C)=C/CC(C)(C)/C=C/C1 [α-Humulene] | – | > 30 µM | – |
| C=C(C)[C@H]1CC=C(C)CC1 [Limonene] | – | > 30 µM | – |

| Molecule | IC50 [1] | IC50 [1, 4] | also measured |
| --- | --- | --- | --- |
| CCCCCC(C)=O [2-Heptanone] | – | > 30 µM | – |
| CCCCCCCCC=O [Nonanal] | – | > 30 µM | – |
| C=CC(=C)CC/C=C(\C)CCC=C(C)C [trans-β-Farnesene] | – | > 30 µM | – |
| CC(=O)CCC=C(C)C [6-Methyl-5-hepten-2-one] | > 30 µM | – | – |
| C=CC(C)(O)CCC=C(C)CCC=C(C)C (mixture of isomers) [Nerolidol] | – | 27.2 ± 0.71 µM | Ki [1, 5]: 20.8 ± 0.55 µM |
| CCCCCCCC=O [Octanal] | – | > 30 µM | – |
| CCCCC(C)=O [2-Hexanone] | > 30 µM | – | – |
| CCCCC(C)O (stereo not shown) [2-Hexanol] | – | > 30 µM | – |
| CCC/C=C/C=O [trans-2-Hexenal] | > 30 µM | – | – |
| Oc1cc(O)c2c(c1)O[C@@H](c1ccc(O)c(O)c1)[C@H](O)C2 [(−)-Catechin] | – | 19.3 ± 0.93 µM | Ki ([1]; […], 2 μM protein, 2 μM 1-NPN, pH 7.4, read-out: Ki (μM) AlinOBP11): 15.3 ± 0.7 µM |
| CCCC(=O)CC [3-Hexanone] | – | > 30 µM | – |
| CCCCCCCCCOC(C)=O [Nonyl acetate] | – | > 30 µM | – |
| CCCCCOC(C)=O [Amyl acetate] | – | > 30 µM | – |
| CC(=O)/C=C/C1=C(C)CCCC1(C)C [β-Ionone] | > 30 µM | – | – |
| CCCCCO [Pentanol] | – | > 30 µM | – |
| O=Cc1ccccc1 [Benzaldehyde] | > 30 µM | – | – |
| CC/C=C\CCO [cis-3-Hexen-1-ol] | > 30 µM | – | – |
| CCCCCCC(C)=O [2-Octanone] | – | > 30 µM | – |
| C[C@@H]1O[C@@H](OC[C@H]2O[C@@H](Oc3c(-c4ccc(O)c(O)c4)oc4cc(O)cc(O)c4c3=O)[C@H](O)[C@@H](O)[C@@H]2O)[C@H](O)[C@H](O)[C@H]1O.O [Rutin hydrate] | – | 9.89 ± 1.61 µM | Ki [1, 5]: 7.78 ± 1.23 µM; binding abilities to AlucOBP36 (in words) [3]: better binding abilities |
| CCC/C=C/COC(=O)CCC [trans-2-hexenyl butyrate] | – | > 30 µM | – |
| C=C1CCC2CC1C2(C)C (stereo not drawn) [β-Pinene] | > 30 µM | – | – |
| CCCCCCOC(=O)CCCCC [Hexyl hexanoate] | – | > 30 µM | – |
